One block for each molecule: values may come before it.
Columns and labels:
[1] = target: U4/U6 snRNA construct (92 nt); assay: SPR binding to U4/U6 snRNA construct (92 nt); design: species or system yeast; conditions: 92 nt RNA, steady-state fit; >100 = signal appeared at 100 μM but failed to fit
Experimental: SPR experiments were carried out using an SPR optical biosensor (BIAcore 3000, Cytiva, USA) based on reported methods with minor modifications.[35] To avoid RNA degradation during long-time injections, the whole microfluidic system was washed by priming 50% RNase Zap buffer and RNase-free water one day before the experiments. Then, by using running buffer (1xPBS, pH7.4, 0.005% Tween 20, 5% DMSO) at a flow rate of 5 μL/min, the binding assays were performed. In brief, a CM5 chip surface coated with carboxylated dextran was activated by standard EDC/NHS amine-coupling protocol and then conjugated with streptavidin (200 ng/mL in 10 mM sodium acetate buffer, pH 4.5) for 30 min, resulting in 4000~6000 response units (RUs) signal. After streptavidin conjugation, the surface was deactivated (1 M ethanolamine, pH 8.5) for 10 min and regenerated (10 mM NaOH) for 2 min to remove unbound SA. Then, the folded U4/U6 RNA with biotin-label at 5′ end was prepared (according to the above-mentioned method) at 5 μM and injected in flow-cell (Fc) 2 for 30 min while Fc1 was kept blank as a reference. Then, the system continued flowing the running buffer until the baseline was stable before future steps.
To detect binding between small molecules and U4/U6 snRNA, a 50 μL compound solution was applied to both Fc1 and Fc2 channels simultaneously at a higher flow rate (25 μL/min). The binding curve contains 120 s association and 200 s dissociation. A pulse of 10 mM NaOH injection was used for regeneration if needed. To measure the dissociation constant (KD), titrations of compound solutions with a serial dilution were applied. The KD value was then calculated by fitting the binding curves based on a steady-state model in BIAevaluation 4.0 software and plotted in GraphPad Prism 9.

[2] = tested on: K-turn-containing RNAs (92 nt, 68 nt, and 32 nt); assay: SMM screening, K-turn-containing RNAs; format: binding, yeast; conditions: Z-score cutoff 3
Experimental: (§1) For high-throughput screening using SMM, the microarray slides were prepared based on previously reported methods using a robotic microarray printer (Arrayjet, UK).[34] Each slide contained ~7,000 compounds with duplicate spots of each sample. To perform screening, the SMM slide surface was first blocked with 500 nM yeast total tRNA (Invitrogen) in screening buffer (1xPBS, pH 7.4, 0.005% Tween 20) for 2 h prior to target RNA incubation. Then, the 5′-Cy5-labeled U4/U6 RNA construct was folded as above described, followed by buffer exchange to screening buffer. After annealing, the RNA was diluted to 50 nM in screening buffer and incubated with the microarray for another 2 h. After that, the glass slide was gently washed with PBST, PBS, and ddH2O three times in each buffer solution and dried in a centrifuge at 1,700 g for 2 min. Finally, the microarray was imaged with an InnoScan 1100 AL fluorescence scanner (Innopsys, France) at 635 nm and the hits were identified based on the quantified fluorescent intensity of each spot.

[3] = tested on: 79 nt RNA (lacking the K-turn); assay: SMM screening, 79 nt RNA; format: binding, yeast; conditions: Z-score cutoff 3
Experimental: as §1

[4] = tested on: U4U6 RNA for SHAPE-MaP (T7 transcript of Template) (RNA, junction) GGGCCUUCGGGCCAAGGCCUUAUGCACGGGAAAUACGCAUAUCAGUGAGGAUUCGUCCGAGAUUGUGUUUUUGCUGGUGUAAAUCAGCAGUUCCCCUGCAUAAGGCUUCGAUCCGGUUCGCCGGAUCCAAAUCGGGCUUCGGUCCGGUUC; assay: SHAPE-MaP (2A3); conditions: KCl (3.3x folding buffer: 1023 mM); potassium phosphate pH 7.0, EDTA; 100 μM compound
[5] = tested on: U4/U6 snRNA construct 92 nt (WT, No. 1) (RNA, junction) GGCCUUAUGCACGGGAAAUACGCAUAUCAGUGAGGAUUCGUCCGAGAUUGUGUUUUUGCUGGUGUAAAUCAGCAGUUCCCCUGCAUAAGGCU; assay: SPR steady state; conditions: 1x PBS, pH 7.4, 0.005% Tween 20, 5% DMSO
[6] = tested on: U4/U6 snRNA construct 92 nt (WT, No. 1), unlabeled (RNA, junction) GGCCUUAUGCACGGGAAAUACGCAUAUCAGUGAGGAUUCGUCCGAGAUUGUGUUUUUGCUGGUGUAAAUCAGCAGUUCCCCUGCAUAAGGCU; assay: CD melting (260 nm); conditions: PBS; 5 μM RNA, 100 μM compound, 5% DMSO
[7] = tested on: U4/U6 snRNA construct 92 nt (WT, No. 1), Cy5 (RNA, junction) GGCCUUAUGCACGGGAAAUACGCAUAUCAGUGAGGAUUCGUCCGAGAUUGUGUUUUUGCUGGUGUAAAUCAGCAGUUCCCCUGCAUAAGGCU; assay: small molecule microarray; conditions: 1x PBS; pH 7.4, 0.005% Tween 20; 50 nM RNA; immobilised compound; Z-score cutoff 3
[8] = tested on: U4/U6 snRNA construct 79 nt (No. 2, K-turn disrupted), Cy5 (RNA, junction) GGCCUUAUGCACGGGAAAUACGCAUAUCGUAAGAUUGUGUUUUUGCUGGUGUAAAUCAGCAGUUCCCCUGCAUAAGGCU; assay: small molecule microarray; conditions: 1x PBS; pH 7.4, 0.005% Tween 20; 50 nM RNA; immobilised compound; Z-score cutoff 3
[9] = tested on: U4/U6 snRNA construct 68 nt (No. 3), Cy5 (RNA, junction) GGGAAAUACGCAUAUCAGUGAGGAUUCGUCCGAGAUUGUGUUUUUGCUGGUGUAAAUCAGCAGUUCCC; assay: small molecule microarray; conditions: 1x PBS; pH 7.4, 0.005% Tween 20; 50 nM RNA; immobilised compound; Z-score cutoff 3
[10] = tested on: U4/U6 snRNA construct 32 nt (No. 4), Cy5 (RNA, hairpin) CGCAUAUCAGUGAGGAUUCGUCCGAGAUUGUG; assay: small molecule microarray; conditions: 1x PBS; pH 7.4, 0.005% Tween 20; 50 nM RNA; immobilised compound; Z-score cutoff 3
Snu13 = target: T1, Snu13 (yeast (species ), UniProt P39990 1-126); assay: MST; no compound; 50 nM RNA; MST: 10 mM HEPES pH 7.4, 150 mM NaCl, 0.005% Tween 20, 50 nM RNA (protein buffer, mixed 1:1 with RNA); EMSA: 20 mM Tris-Cl pH 7.6, 150 mM NaCl, 0.1% Triton X-100, 2 mM DTT, room temperature, 8% native PAGE; RNA folded in 11.25 mM K-phosphate pH 7.0, 310 mM KCl, 5 mM EDTA; conditions: label: 5'-Cy5; folded single strand; three-way junction, U4 5' stem-loop with 5x2 internal loop (K-turn)
T1 sequence: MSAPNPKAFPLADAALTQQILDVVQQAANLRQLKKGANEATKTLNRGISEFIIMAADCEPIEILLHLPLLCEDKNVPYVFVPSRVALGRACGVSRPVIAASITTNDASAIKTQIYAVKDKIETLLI

Molecule: Cc1ccc(-n2ncc3c(NCCCN(C)C)ncnc32)cc1Cl [Compound 1]
Kd [1]: 50.3 ± 1.3 µM | SMM binding signal [2]: positive binding signals | SMM binding signal [3]: negative results | binding [4]: yes | KD [5]: 50.3 ± 1.3 µM | ΔTm [6]: -1.5 ± 0.5 °C | binding [7]: yes | binding [8]: no | binding [9]: yes | binding [10]: yes

Molecule: CCc1nnc(-c2nnc(NCCN(CC)CC)c3ccccc23)o1 [Compound 4]
Kd [1]: > 100 µM | KD ([5]; signal at 100 μM, not fitted): > 100 µM

Molecule: CCCCNc1nnc(-c2nnc(CC)o2)c2ccccc12 [Compound 5]
Kd [1]: > 100 µM

Molecule: CCc1nnc(-c2nnc(NCCOC)c3ccccc23)o1 [Compound 6]
Kd [1]: > 100 µM

Molecule: CCc1nnc(-c2nnc(NCCCOC)c3ccccc23)o1 [Compound 7]
Kd [1]: > 100 µM

Molecule: CCc1nnc(-c2nnc(NCc3cccnc3)c3ccccc23)o1 [Compound 8]
Kd [1]: > 100 µM

Molecule: CCc1nnc(-c2nnc(NCCCN3CCOCC3)c3ccccc23)o1 [Compound 9]
Kd [1]: 61.3 ± 38.9 µM | KD [5]: 61.3 ± 38.9 µM

Molecule: CCc1nnc(-c2nnc(NCCCN3CCN(C)CC3)c3ccccc23)o1 [Compound 10]
Kd [1]: 51.4 ± 8 µM | KD [5]: 51.4 ± 8.0 µM

Molecule: CCc1nnc(-c2nnc(NCCC(C)C)c3ccccc23)o1 [Compound 11]
Kd [1]: > 100 µM

Molecule: COCCNc1nnc(-c2nnc(C3CC3)o2)c2ccccc12 [Compound 13]
Kd [1]: > 100 µM

Molecule: CCCCNc1nnc(-c2nc(C3CC3)no2)c2ccccc12 [Compound 16]
Kd [1]: > 100 µM

Molecule: COCCNc1nnc(-c2nc(C3CC3)no2)c2ccccc12 [Compound 17]
Kd [1]: > 100 µM

Molecule: c1cncc(CNc2nnc(-c3nc(C4CC4)no3)c3ccccc23)c1 [Compound 18]
Kd [1]: > 100 µM

Molecule: c1ccc2c(-c3nc(C4CC4)no3)nnc(NCCN3CCOCC3)c2c1 [Compound 19]
Kd [1]: 34.5 ± 11.3 µM | KD [5]: 34.5 ± 11.3 µM

Molecule: c1ccc2c(-c3nc(C4CC4)no3)nnc(NCCCN3CCOCC3)c2c1 [Compound 20]
Kd [1]: 42.1 ± 8.6 µM | KD [5]: 42.1 ± 8.6 µM

Molecule: Fc1ccc(-c2noc(-c3nnc(NCc4cccnc4)c4ccccc34)n2)cc1 [Compound 24]
Kd [1]: > 100 µM | KD ([5]; signal at 100 μM, not fitted): > 100 µM

B1: U4/U6 snRNA 92 nt construct (structured_RNA)
RNA: GGCCUUAUGCACGGGAAAUACGCAUAUCAGUGAGGAUUCGUCCGAGAUUGUGUUUUUGCUGGUGUAAAUCAGCAGUUCCCCUGCAUAAGGCU
Kd (Snu13): 62 ± 4 nM

Other lines, results leading:

Kd [1]: 30.5 ± 8.4 µM | SMM binding signal [2]: positive binding signals | SMM binding signal [3]: negative results | KD [5]: 30.5 ± 8.4 µM | ΔTm [6]: +3.3 ± 0.3 °C | binding [7]: yes | binding [8]: no | binding [9]: yes | binding [10]: yes
Molecule: CCc1nnc(-c2nnc(NCCCN(C)C)c3ccccc23)o1 [Compound 2]

Kd [1]: 29.2 ± 8.6 µM | KD [5]: 29.2 ± 8.6 µM
Molecule: CCc1nnc(-c2nnc(NCCN(C)C)c3ccccc23)o1 [Compound 3]

Kd [1]: 24.2 ± 7 µM | KD [5]: 24.2 ± 7.0 µM
Molecule: CCN(CC)CCNc1nnc(-c2nnc(C3CC3)o2)c2ccccc12 [Compound 12]

Kd [1]: 32.8 ± 11 µM | KD [5]: 32.8 ± 11.0 µM
Molecule: CN(C)CCNc1nnc(-c2nc(C3CC3)no2)c2ccccc12 [Compound 14]

Kd [1]: 23.4 ± 6 µM | KD [5]: 23.4 ± 6.0 µM
Molecule: CCN(CC)CCNc1nnc(-c2nc(C3CC3)no2)c2ccccc12 [Compound 15]

Kd [1]: 23 ± 5.3 µM | KD [5]: 23.0 ± 5.3 µM
Molecule: CN1CCN(CCCNc2nnc(-c3nc(C4CC4)no3)c3ccccc23)CC1 [Compound 21]

Kd [1]: 11.9 ± 7.1 µM | KD [5]: 11.9 ± 7.1 µM
Molecule: CN(C)CCCNc1nnc(-c2nc(-c3ccc(F)cc3)no2)c2ccccc12 [Compound 23]

Kd [1]: 13.9 ± 3.2 µM | KD [5]: 13.9 ± 3.2 µM
Molecule: CN1CCN(CCNc2nnc(-c3nc(-c4ccc(F)cc4)no3)c3ccccc23)CC1 [Compound 25]

— paper doi:10.1101/2025.10.10.681657 (bioRxiv, 2025)
